# Legend:
# L 1210 leukemia [1] = experiment: Test 10: comparison of antitumoral activity with known products, L 1210 (Tables V-VII); assay type: in vivo, mouse; settings: J+3
# Protocol: Test 10: Comparison of the antitumoral activity of the compound according to example 7 with that of known products
# The compound of example 7, i.e. 1-(γ-diethylaminopropyl)amino-5-methyl-dipyrido-[4,3-b][3,4-f] indole or known compounds were injected into L 1210 leukemic mice 1 or 3 days after the inoculation of the cells at the doses indicated in tables V to VII and the mean survival time (MST) and the precentage of increased life span (ILS %) were measured.
# Indications concerned the known products used in this example and particularly their antitumoral properties, their secondary effects and their use in man may be found in "La Chimiotherapie des Cancers", by G. MATHE and M. KENIS Expansion Scientifique Francaise, 3rd edition, Paris 1975.
# [2] = test system: tumoral strain derived from the murine leukemia due to the C. FRIEND virus; experiment: Test 7: antitumoral activity in vitro on Friend leukemia tumoral strain; assay type: cell-based; settings: HUM = 1
# Protocol: Test 7: Study of the antitumoral activity in vitro
# This activity was measured on a tumoral strain derived from the murine leukemia due to the C. FRIEND virus.
# The tumoral cells multiply in suspension in a "RPMI 1640" medium (Catalogue of GIBCO Bio-cult. Ltd. Washington Road, Sandyford Industrial Estate, PAISLEY PA 3 4EP, Renfrewshire, Scotland) supplemented with 20% of embryonary calf serum, penicillin and streptomycine. The duplication time of these cells is 11 hours. The growth fraction is equal to 1 or very close to 1 (all the cells are in the cycle). The cultures are sub-culturedat time t=0 at the concentration of 2.10^5 cells per ml in Falcon dishes containing 4 ml of medium. After twenty four hours, the product to be tested was added, i.e. at a moment when the cultures are in exponential phase of growth. Twenty four hours after the addition of the product, the cells are counted and the percentage of living cells determined by an exclusion test using "trypan" blue.
# leukemic cells = experiment: Test 20: combination of compound 21 with other drugs (Table XV); settings: 10^5 cells, BD 40 20 mg/kg day +4, Endoxan 100 mg/kg day +3
# Protocol: A priming dose of endoxan (100 mg/kg) was given 3 days after 10^5 leukemic cells (20 mice).
# mice = experiment: Test 21: toxicity after intraperitoneal injection
# Protocol: All drugs were dissolved in aqueous solutions adjusted at pH 5 with acetic acid and inoculated to the mice under a volume of 0.1 ml I.P. after dilution in Mac Coy's medium.
# The toxicity of the drugs after intraperitoneal injection was estimated from the mortality rate up to the 30th day.
# Lewis carcinoma (3LL) = experiment: Test 13: Lewis carcinoma, antimetastasic effect; assay type: in vivo, BDF1 mice
# Protocol: "carcinome pulmonaire de Lewis" (3LL), K. SUGIURA and C. C. STOCK," Cancer Res. 1955 15 38-51.
# In this test, cells (10^6 cells) removed from a tumour-carrying mouse were injected into mice(BDF1) by the IM route. The mice developed, 10 to 15 days after the inoculation, a tumour at the spot where the injection was made. On the other hand, these cells made metastasis in the lung, forming colonies on the pulmonary surface. The antitumoral and antimetastasic effect of a product may therefore be judged on mice thus treated.
# Investigation of the antimetastasic effect of the compounds of examples 7 and 8 of the invention
# 10^6 cells taken from a tumour-carrying mouse were injected by the IM route (left-band paw) into groups of 10 mice and the compounds to be tested were inoculated by the IP route on day J+5 by single or fractioned injection. The mean survival time (MST) and the increased life span (ILS %) were determined.
# L1210 leukemia = experiment: Test 16: structure-activity of R'1 substitution, L1210 (Table XII); assay type: in vivo, mouse (C57B16xDBA/2)F1; settings: for 60 days surv. / ILS % / Range of death: day +1
# Protocol: Test 16: Relationship between structure and activity of various dipyrido indoles differing by the R'1 substitution.
# L1210 leukemia has been maintained by weekly passages on (C57B16xDBA/2)F1 mice. On day 0, mice were inoculated by I.P. route with various numbers of L1210 ascitic tumor cells in volumes of 0.1 ml. Subsequently as indicated, drugs were administrated in Ca^++ and Mg^++ free PBS solutions (Gibco) or in Mac Coy's medium (Gibso or Microbiological Associates). […]
# L 1210 leukemia [3] = experiment: Test 11: L 1210 leukemic mice, examples 7 and 8 (Table VIII); assay type: in vivo, mouse; design: MTS: unit not given beside the values; settings: J+1
# Protocol: This test was carried out with 10^3, 10^4 and 10^5 leukemic cells on day J. This test was also carried out with the compound of example 7, i.e. 1-[(γ-diethylaminopropyl)amino]-5-methyl-dipyrido [4,3-b][3,4-f] indole (compound 21).
# [4] = Table V, 10^4 cells, doses mg/mouse: example 7 0.2, Thiotepa 0.1, Mitomycine 0.016, BCNU 0.1, Methotrexate 0.250
# [5] = Table V, 10^4 cells, mg/mouse: example 7 0.2, Thiotepa 0.1, Mitomycine 0.016, BCNU 0.1, Methotrexate 0.250, Endoxan 4
# [6] = Table VI, 10^5 cells, mg/mouse: Thiotepa 0.1, Mitomycine C 0.016, BCNU 0.1, Methotrexate 0.250, example 7 0.2, Endoxan 4
# [7] = Table VII, 10^5 cells, example 7 0.2 mg/mouse, ON COVIN 0.5 μg/mouse
smiles,measurement,setting,value
S=P(N1CC1)(N1CC1)N1CC1 [Thiotepa],ILS %,L 1210 leukemia [1]; [4],0%
same,MTS (mean survival time),L 1210 leukemia [1]; [4],11
same,Range of death,L 1210 leukemia [1]; [5],10 to 11 days
same,ILS %,L 1210 leukemia [1]; [6],1.54%
same,MTS (mean survival time),L 1210 leukemia [1]; [6],9.2
same,Range of death,L 1210 leukemia [1]; [6],9-10
"Cc1c2cc[nH]c(=O)c2cc2c1[nH]c1ccncc12 [Example 5, 1,2-dihydro-1-oxo 5-methyl-dipyrido-[4,3-b][3,4-f] indole]",Activity (ratio of the LD50 of HUM to the LD50 of the product tested),[2],0.15
CO[C@@]12[C@H](COC(N)=O)C3=C(C(=O)C(C)=C(N)C3=O)N1C[C@@H]1N[C@@H]12 [Mitomycine C],ILS %,L 1210 leukemia [1]; [4],4.95%
same,MTS (mean survival time),L 1210 leukemia [1]; [4],11.54
same,Range of death,L 1210 leukemia [1]; [5],10 to 15 days
same,ILS %,L 1210 leukemia [1]; [6],0%
same,MTS (mean survival time),L 1210 leukemia [1]; [6],9.06
same,Range of death,L 1210 leukemia [1]; [6],9-10
O=P1(N(CCCl)CCCl)NCCCO1 (centres unmarked) [Endoxan],mice alive on 30th day (of 10),"L 1210 leukemia [1]; Table V, 10^4 cells, Endoxan 4 mg/mouse",3
same,Range of death,L 1210 leukemia [1]; [5],13 days
same,ILS %,L 1210 leukemia [1]; [6],105.30%
same,MTS (mean survival time),L 1210 leukemia [1]; [6],18.6
same,Range of death,L 1210 leukemia [1]; [6],15-21
same,ILS %,leukemic cells; BCNU 2 mg/kg,16.9%
same,Range of death,leukemic cells; BCNU 2 mg/kg immediately after endoxan,11-17
same,MST,"leukemic cells; BCNU 2 mg/kg, control 11.2",13.1
CC[C@]1(O)C[C@H]2CN(CCc3c([nH]c4ccccc34)[C@@](C(=O)OC)(c3cc4c(cc3OC)N(C=O)[C@H]3[C@@](O)(C(=O)OC)[C@H](OC(C)=O)[C@]5(CC)C=CCN6CC[C@]43[C@@H]65)C2)C1 [ON COVIN],ILS %,L 1210 leukemia [1]; [7],3.85%
same,MTS (mean survival time),L 1210 leukemia [1]; [7],10.8
same,Range of death,L 1210 leukemia [1]; [7],10-13
"Cc1c2ccnc(NCCCN(C)C)c2cc2c1[nH]c1ccncc12 [Example 8, 1-(γ-dimethylaminopropyl)amino-5-methyl-dipyrido-[4,3-b][3,4-f] indole]",time of deaths after drug administration,mice; IP,3 to 5 days
same,minimal quantity resulting in 100% deaths,"mice; mouse, in vivo, ip, 43200 min",50 mg/kg
same,protective action concerning metastasic pulmonary invasion of the lung,Lewis carcinoma (3LL); IP from J+5,give a protective action
same,ILS %,"Lewis carcinoma (3LL); J+5, 5 mg/kg",9.8%
same,MST,"Lewis carcinoma (3LL); J+5, 5 mg/kg, controls 25",27.44
same,60 days surv.,"L1210 leukemia; 10^4 cells, 2.5 mg/kg",1
same,ILS %,"L1210 leukemia; 10^4 cells, 2.5 mg/kg",34.9%
same,Range of death,"L1210 leukemia; 10^4 cells, 2.5 mg/kg",10-19
same,60 days surv.,"L1210 leukemia; 10^5 cells, 5 mg/kg",0
same,ILS %,"L1210 leukemia; 10^5 cells, 5 mg/kg",52.5%
same,Range of death,"L1210 leukemia; 10^5 cells, 5 mg/kg",11-16
same,antitumoral activity compared with Ellipticinium acetate (HUM),L1210 leukemia; Table XII summary,compete favorably with Ellipticinium acetate (HUM)
same,ILS %,"L 1210 leukemia [3]; 10^3 cells, 0.05 mg/mouse",34.9%
same,Number of surviving mice,"L 1210 leukemia [3]; 10^3 cells, 0.05 mg/mouse",1
same,ILS %,"L 1210 leukemia [3]; 10^3 cells, 0.1 mg/mouse",50.5%
same,MTS,"L 1210 leukemia [3]; 10^3 cells, 0.1 mg/mouse",16.4
same,Number of surviving mice,"L 1210 leukemia [3]; 10^3 cells, 0.1 mg/mouse",3
same,ILS %,"L 1210 leukemia [3]; 10^4 cells, 0.05 mg/mouse",34.9%
same,Number of surviving mice,"L 1210 leukemia [3]; 10^4 cells, 0.05 mg/mouse",1
same,ILS %,"L 1210 leukemia [3]; 10^4 cells, 0.1 mg/mouse",25.7%
same,MTS,"L 1210 leukemia [3]; 10^4 cells, 0.1 mg/mouse",13.7
same,Number of surviving mice,"L 1210 leukemia [3]; 10^4 cells, 0.1 mg/mouse",3
same,ILS %,"L 1210 leukemia [3]; 10^5 cells, 0.05 mg/mouse",28.1%
same,MTS,"L 1210 leukemia [3]; 10^5 cells, 0.05 mg/mouse",11.6
same,ILS %,"L 1210 leukemia [3]; 10^5 cells, 0.1 mg/mouse",52.5%
same,MTS,"L 1210 leukemia [3]; 10^5 cells, 0.1 mg/mouse",13.8
